Experiment [1] has as its target T1, human GcgR (Homo sapiens, UniProt P47871).
T1 construct: expressed in transfected cells; crude membranes
Briefly: [125I]-Glucagon binding, SPA with WGA beads, 0.1% bacitracin. To be noted: geometric mean, read-out: hGcgR Ki. A digest of the protocol: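 SPA competition binding with WGA beads on crude membranes from HEK293 cells stably expressing hGcgR. Buffer: 25 mM HEPES pH 7.4, 2.5 mM CaCl2, 1 mM MgCl2, 0.1% bacitracin, 0.003% Tween-20; 10-point 3-fold dilutions, NSB with 1 μM Gcg.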

In experiment [2] the target is T2, human GIPR (Homo sapiens, UniProt P48546).
T2 construct: expressed in transfected cells; crude membranes
T2 sequence (P48546 22-466): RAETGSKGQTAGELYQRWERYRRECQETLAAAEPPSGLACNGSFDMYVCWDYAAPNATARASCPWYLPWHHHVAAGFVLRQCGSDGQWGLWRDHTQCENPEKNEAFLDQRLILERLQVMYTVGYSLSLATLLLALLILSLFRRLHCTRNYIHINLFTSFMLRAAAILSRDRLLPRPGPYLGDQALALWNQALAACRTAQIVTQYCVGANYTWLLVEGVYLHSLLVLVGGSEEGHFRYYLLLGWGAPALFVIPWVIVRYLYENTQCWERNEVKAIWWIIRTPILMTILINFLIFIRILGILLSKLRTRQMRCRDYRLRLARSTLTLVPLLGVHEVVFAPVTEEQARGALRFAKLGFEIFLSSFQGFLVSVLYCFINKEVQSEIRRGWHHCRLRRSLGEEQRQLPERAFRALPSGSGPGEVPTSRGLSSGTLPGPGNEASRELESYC
Briefly: [125I]-GIP binding, SPA with WGA beads, 0.1% bacitracin. As to conditions: geometric mean, read-out: hGIPR Ki. A digest of the protocol:
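Ki values are geometric means (SEM, n independent days), derived from four-parameter nonlinear regression of IC50. Membranes came from hGIPR-expressing CHO cells.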

*1 amine or outer side, *2 acyl side, *3 side chain or, on linkers, in order; H or OH if unused. Where a SMILES comes first, the peptide text is derived from it. Side-chain parts run from the residue outwards. [ ]: non-standard residue; d: D form. The star is where a group is joined. C20 diacid = O=C(O)CCCCCCCCCCCCCCCCCCC(=O)*; C18 diacid = O=C(O)CCCCCCCCCCCCCCCCC(=O)*; αMePhe(2-F) = C[C@](N)(Cc1ccccc1F)C(=O)O; γGlu = O=C(O)[C@H](CCC(=O)[*:2])N[*:1]; αMeL = CC(C)C[C@](C)(N)C(=O)O; AEEA = NCCOCCOCC(=O)O; Aib = CC(C)(N)C(=O)O Bounds are passed on as bounds.

T1 sequence (P47871 26-477): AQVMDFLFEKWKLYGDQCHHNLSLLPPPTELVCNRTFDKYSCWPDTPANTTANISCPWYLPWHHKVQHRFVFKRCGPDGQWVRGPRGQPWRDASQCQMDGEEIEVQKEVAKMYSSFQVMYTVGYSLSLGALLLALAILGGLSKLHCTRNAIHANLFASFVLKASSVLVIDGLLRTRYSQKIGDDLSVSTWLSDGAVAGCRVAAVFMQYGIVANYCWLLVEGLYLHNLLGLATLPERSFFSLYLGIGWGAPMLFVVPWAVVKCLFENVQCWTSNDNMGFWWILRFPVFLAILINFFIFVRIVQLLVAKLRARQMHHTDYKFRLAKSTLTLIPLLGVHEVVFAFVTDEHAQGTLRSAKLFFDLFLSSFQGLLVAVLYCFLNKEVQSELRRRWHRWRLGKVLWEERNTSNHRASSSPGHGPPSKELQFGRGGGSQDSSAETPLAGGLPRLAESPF

One may read the Ki as a dissociation constant, usually derived from enzyme kinetics or from competition with a known ligand. Turning to `CC[C@H](C)[C@H](NC(=O)[C@H](CO)NC(=O)[C@H](Cc1ccc(O)cc1)NC(=O)[C@H](CC(=O)O)NC(=O)[C@H](CO)NC(=O)[C@@H](NC(=O)[C@H](CC(C)C)NC(=O)[C@@H](NC(=O)CNC(=O)[C@H](CCC(=O)O)NC(=O)[C@@H](C)NC(=O)[C@@H](N)Cc1ccc(O)cc1)[C@@H](C)O)[C@@H](C)CC)C(=O)N[C@@H](CC(C)C)C(=O)N[C@@H](CC(C)C)C(=O)N[C@@H](CC(=O)O)C(=O)N[C@@H](CCCCN)C(=O)N[C@@H](CCCCNC(=O)COCCOCCNC(=O)COCCOCCNC(=O)CC[C@H](NC(=O)CCCCCCCCCCCCCCCCC(=O)O)C(=O)O)C(=O)N[C@@H](C)C(=O)N[C@@H](CCC(N)=O)C(=O)NC(C)(C)C(=O)N[C@@H](CC(=O)O)C(=O)N[C@@H](Cc1ccccc1)C(=O)N[C@H](C(=O)N[C@@H](CC(N)=O)C(=O)N[C@@H](Cc1c[nH]c2ccccc12)C(=O)N[C@@H](CC(C)C)C(=O)N[C@@H](CC(C)C)C(=O)N[C@@H](C)C(=O)N[C@@H](CCC(N)=O)C(=O)NCC(=O)N1CCC[C@H]1C(=O)N[C@@H](CO)C(=O)N[C@@H](CO)C(=O)NCC(=O)N[C@@H](C)C(=O)N1CCC[C@H]1C(=O)N1CCC[C@H]1C(=O)N1CCC[C@H]1C(=O)N[C@@H](CO)C(N)=O)C(C)C` [Example 32] (H-Y[dA]EGTLISDYSILLDKK([AEEA-AEEA-γGlu-C18 diacid])AQ[Aib]DFVNWLLAQGPSSGAPPPS-NH2), the Ki in experiment [1] was over 959 nM; in experiment [2], 0.0343 nM.

Regarding `CC[C@H](C)[C@H](NC(=O)[C@H](CO)NC(=O)[C@H](Cc1ccc(O)cc1)NC(=O)[C@H](CC(=O)O)NC(=O)[C@H](CO)NC(=O)[C@@H](NC(=O)[C@](C)(Cc1ccccc1F)NC(=O)[C@@H](NC(=O)CNC(=O)[C@H](CCC(=O)O)NC(=O)[C@H](C)NC(=O)[C@@H](Cc1ccc(O)cc1)NC(C)=O)[C@@H](C)O)[C@@H](C)CC)C(=O)N[C@@H](C)C(=O)N[C@@H](CC(C)C)C(=O)N[C@@H](CC(=O)O)C(=O)N[C@@H](CCCCN)C(=O)N[C@@H](CCCCNC(=O)COCCOCCNC(=O)COCCOCCNC(=O)CC[C@H](NC(=O)CCCCCCCCCCCCCCCCCCC(=O)O)C(=O)O)C(=O)N[C@@H](Cc1c[nH]cn1)C(=O)N[C@@H](CCC(N)=O)C(=O)NC(C)(C)C(=O)N[C@@H](CCC(=O)O)C(=O)N[C@@H](Cc1ccccc1)C(=O)N[C@H](C(=O)N[C@@H](CC(N)=O)C(=O)N[C@@H](Cc1ccc(O)cc1)C(=O)N[C@@H](CC(C)C)C(=O)N[C@@H](CC(C)C)C(=O)N[C@@H](CCC(=O)O)C(=O)NCC(=O)NCC(=O)N1CCC[C@H]1C(=O)N[C@@H](CO)C(=O)N[C@@H](CO)C(=O)NCC(=O)N[C@@H](C)C(=O)N1CCC[C@H]1C(=O)N1CCC[C@H]1C(=O)N1CCC[C@H]1C(=O)N[C@@H](CO)C(N)=O)C(C)C` [Example 33] (Ac-[dY]AEGT[αMePhe(2-F)]ISDYSIALDKK([AEEA-AEEA-γGlu-C20 diacid])HQ[Aib]EFVNYLLEGGPSSGAPPPS-NH2), the Ki is 63.5 nM in experiment [1] and 0.0369 nM in experiment [2].

Take `CC[C@H](C)[C@H](NC(=O)[C@H](CO)NC(=O)[C@H](Cc1ccc(O)cc1)NC(=O)[C@H](CC(=O)O)NC(=O)[C@H](CO)NC(=O)[C@@H](NC(=O)[C@](C)(Cc1ccccc1F)NC(=O)[C@@H](NC(=O)CNC(=O)[C@H](CCC(=O)O)NC(=O)C(C)(C)NC(=O)[C@@H](N)Cc1ccc(O)cc1)[C@@H](C)O)[C@@H](C)CC)C(=O)N[C@@H](C)C(=O)N[C@@H](CC(C)C)C(=O)N[C@@H](CC(=O)O)C(=O)N[C@@H](CCCCN)C(=O)N[C@@H](CCCCNC(=O)COCCOCCNC(=O)COCCOCCNC(=O)CC[C@H](NC(=O)CCCCCCCCCCCCCCCCCCC(=O)O)C(=O)O)C(=O)N[C@@H](Cc1c[nH]cn1)C(=O)N[C@@H](CCC(N)=O)C(=O)NC(C)(C)C(=O)N[C@@H](CCC(=O)O)C(=O)N[C@@H](Cc1ccccc1)C(=O)N[C@H](C(=O)N[C@@H](CC(N)=O)C(=O)N[C@@H](Cc1ccc(O)cc1)C(=O)N[C@@H](CC(C)C)C(=O)N[C@@H](CC(C)C)C(=O)N[C@@H](C)C(=O)N[C@H](C(=O)NCC(=O)N1CCC[C@H]1C(=O)N[C@@H](CO)C(=O)N[C@@H](CO)C(=O)NCC(=O)N[C@@H](C)C(=O)N1CCC[C@H]1C(=O)N1CCC[C@H]1C(=O)N1CCC[C@H]1C(=O)N[C@@H](CO)C(N)=O)[C@@H](C)O)C(C)C` [Example 34] (H-Y[Aib]EGT[αMePhe(2-F)]ISDYSIALDKK([AEEA-AEEA-γGlu-C20 diacid])HQ[Aib]EFVNYLLATGPSSGAPPPS-NH2): the Ki in experiment [1] was determined as 143 nM; in experiment [2], 0.034 nM.

Consider `CC[C@H](C)[C@H](NC(=O)[C@H](CO)NC(=O)[C@H](Cc1ccc(O)cc1)NC(=O)[C@H](CC(=O)O)NC(=O)[C@H](CO)NC(=O)[C@@H](NC(=O)[C@](C)(CC(C)C)NC(=O)[C@@H](NC(=O)CNC(=O)[C@H](CCC(=O)O)NC(=O)C(C)(C)NC(=O)[C@@H](N)Cc1ccc(O)cc1)[C@@H](C)O)[C@@H](C)CC)C(=O)N[C@@H](C)C(=O)N[C@@H](CC(C)C)C(=O)N[C@@H](CC(=O)O)C(=O)N[C@@H](CCCCN)C(=O)N[C@@H](CCCCNC(=O)COCCOCCNC(=O)COCCOCCNC(=O)CC[C@H](NC(=O)CCCCCCCCCCCCCCCCCCC(=O)O)C(=O)O)C(=O)N[C@@H](Cc1c[nH]cn1)C(=O)N[C@@H](CCC(N)=O)C(=O)NC(C)(C)C(=O)N[C@@H](CCC(=O)O)C(=O)N[C@@H](Cc1ccccc1)C(=O)N[C@H](C(=O)N[C@@H](CC(N)=O)C(=O)N[C@@H](Cc1ccc(O)cc1)C(=O)N[C@@H](CC(C)C)C(=O)N[C@@H](CC(C)C)C(=O)N[C@@H](C)C(=O)N[C@H](C(=O)NCC(=O)N1CCC[C@H]1C(=O)N[C@@H](CO)C(=O)N[C@@H](CO)C(=O)NCC(=O)N[C@@H](C)C(=O)N1CCC[C@H]1C(=O)N1CCC[C@H]1C(=O)N1CCC[C@H]1C(=O)N[C@@H](CO)C(N)=O)[C@@H](C)O)C(C)C` [Example 35] (H-Y[Aib]EGT[αMeL]ISDYSIALDKK([AEEA-AEEA-γGlu-C20 diacid])HQ[Aib]EFVNYLLATGPSSGAPPPS-NH2), for which the Ki in experiment [1] was over 960 nM; in experiment [2], 0.0351 nM.

Turning to `CC[C@H](C)[C@H](NC(=O)[C@H](CO)NC(=O)[C@H](Cc1ccc(O)cc1)NC(=O)[C@H](CC(=O)O)NC(=O)[C@H](CO)NC(=O)[C@@H](NC(=O)[C@](C)(Cc1ccccc1F)NC(=O)[C@@H](NC(=O)CNC(=O)[C@H](CCC(=O)O)NC(=O)C(C)(C)NC(=O)[C@@H](N)Cc1ccc(O)cc1)[C@@H](C)O)[C@@H](C)CC)C(=O)N[C@@H](C)C(=O)N[C@@H](CC(C)C)C(=O)N[C@@H](CC(=O)O)C(=O)N[C@@H](CCCCN)C(=O)N[C@@H](CCCCNC(=O)COCCOCCNC(=O)COCCOCCNC(=O)CC[C@H](NC(=O)CCCCCCCCCCCCCCCCCCC(=O)O)C(=O)O)C(=O)N[C@@H](Cc1c[nH]cn1)C(=O)N[C@@H](CCC(N)=O)C(=O)NC(C)(C)C(=O)N[C@@H](CC(=O)O)C(=O)N[C@@H](Cc1ccccc1)C(=O)N[C@H](C(=O)N[C@@H](CCC(=O)O)C(=O)N[C@@H](Cc1ccc(O)cc1)C(=O)N[C@@H](CC(C)C)C(=O)N[C@@H](CC(C)C)C(=O)N[C@@H](CCC(=O)O)C(=O)N[C@H](C(=O)NCC(=O)N1CCC[C@H]1C(=O)N[C@@H](CO)C(=O)N[C@@H](CO)C(=O)NCC(=O)N[C@@H](C)C(=O)N1CCC[C@H]1C(=O)N1CCC[C@H]1C(=O)N1CCC[C@H]1C(=O)N[C@@H](CO)C(N)=O)[C@@H](C)O)C(C)C` [Example 36] (H-Y[Aib]EGT[αMePhe(2-F)]ISDYSIALDKK([AEEA-AEEA-γGlu-C20 diacid])HQ[Aib]DFVEYLLETGPSSGAPPPS-NH2), the results for the Ki in experiment [1] and in experiment [2] were 201 nM and 0.0683 nM, respectively.

For the compound `CC[C@H](C)[C@H](NC(=O)[C@H](CO)NC(=O)[C@H](Cc1ccc(O)cc1)NC(=O)[C@H](CC(=O)O)NC(=O)[C@H](CO)NC(=O)[C@@H](NC(=O)[C@](C)(Cc1ccccc1F)NC(=O)[C@@H](NC(=O)CNC(=O)[C@H](CCC(=O)O)NC(=O)C(C)(C)NC(=O)[C@@H](N)Cc1ccc(O)cc1)[C@@H](C)O)[C@@H](C)CC)C(=O)N[C@@H](C)C(=O)N[C@@H](CC(C)C)C(=O)N[C@@H](CC(=O)O)C(=O)N[C@@H](CCCCN)C(=O)N[C@@H](CCCCNC(=O)COCCOCCNC(=O)COCCOCCNC(=O)CC[C@H](NC(=O)CCCCCCCCCCCCCCCCCCC(=O)O)C(=O)O)C(=O)N[C@@H](Cc1c[nH]cn1)C(=O)N[C@@H](CCC(N)=O)C(=O)NC(C)(C)C(=O)N[C@@H](CC(=O)O)C(=O)N[C@@H](Cc1ccccc1)C(=O)N[C@H](C(=O)N[C@@H](CCC(=O)O)C(=O)N[C@@H](Cc1ccc(O)cc1)C(=O)N[C@@H](CC(C)C)C(=O)N[C@@H](CC(C)C)C(=O)N[C@@H](CCC(=O)O)C(=O)NCC(=O)NCC(=O)N1CCC[C@H]1C(=O)N[C@@H](CO)C(=O)N[C@@H](CO)C(=O)NCC(=O)N[C@@H](C)C(=O)N1CCC[C@H]1C(=O)N1CCC[C@H]1C(=O)N1CCC[C@H]1C(=O)N[C@@H](CO)C(N)=O)C(C)C` [Example 37] (H-Y[Aib]EGT[αMePhe(2-F)]ISDYSIALDKK([AEEA-AEEA-γGlu-C20 diacid])HQ[Aib]DFVEYLLEGGPSSGAPPPS-NH2), the Ki in experiment [1] was found to be 51.4 nM; in experiment [2] it was 0.026 nM.

For the origin of these results see patent publication US12723063B2, “GIPR-agonist compounds” (Eli Lilly and Company, priority 2019, dated 2026).
